Data: ChEMBL document CHEMBL2203052, “Synthesis and antimycobacterial activity of calpinactam derivatives” (2012)
Converted amounts (≈) assume the structure as drawn.

Test system: Mycolicibacterium smegmatis
Assay: Antimycobacterial activity against Mycobacterium smegmatis by liquid microdilution method
Assay type: functional

Compound	MIC [µg/mL]
CC[C@H](C)[C@@H](NC(=O)[C@@H](CCC(=O)O)NC(=O)[C@H](Cc1cnc[nH]1)NC(=O)[C@H](CC(C)C)NC(=O)[C@H](N)Cc1ccccc1)C(=O)N[C@@H]1CCCCNC1=O	> 50
CC[C@H](C)[C@@H](NC(=O)[C@@H](CCC(=O)O)NC(=O)[C@H](Cc1cnc[nH]1)NC(=O)[C@H](CC(C)C)NC(=O)[C@H](N)Cc1ccccc1)C(=O)O	> 50
CC[C@H](C)[C@@H](NC(=O)[C@@H](CCC(=O)O)NC(=O)[C@H](Cc1cnc[nH]1)NC(=O)[C@H](CC(C)C)NC(=O)[C@H](N)Cc1ccccc1)C(=O)N[C@@H](CCCCN)C(=O)O	> 50
CC[C@H](C)[C@@H](NC(=O)[C@@H](CCC(=O)O)NC(=O)[C@H](Cc1cnc[nH]1)NC(=O)[C@H](CC(C)C)NC(=O)[C@H](N)Cc1ccccc1)C(=O)NC1CCCCCC1	> 50
CC[C@H](C)[C@@H](NC(=O)[C@@H](CCC(=O)O)NC(=O)[C@H](Cc1cnc[nH]1)NC(=O)[C@@H](N)CC(C)C)C(=O)N[C@H]1CCCCNC1=O	> 50
CC[C@H](C)[C@@H](NC(=O)[C@@H](CCC(=O)O)NC(=O)[C@H](Cc1cnc[nH]1)NC(=O)[C@H](CC(C)C)NC(=O)[C@@H](Cc1ccccc1)NC(C)=O)C(=O)N[C@H]1CCCCNC1=O	> 50
CC[C@H](C)[C@@H](NC(=O)[C@@H](CCC(=O)O)NC(=O)[C@@H](Cc1cnc[nH]1)NC(=O)[C@H](CC(C)C)NC(=O)[C@H](N)Cc1ccccc1)C(=O)N[C@H]1CCCCNC1=O	> 50
CC[C@H](C)[C@@H](NC(=O)[C@@H](C)NC(=O)[C@H](Cc1cnc[nH]1)NC(=O)[C@H](CC(C)C)NC(=O)[C@H](N)Cc1ccccc1)C(=O)N[C@H]1CCCCNC1=O	6.25 (≈ 8.8 µM)
CC[C@H](C)[C@@H](NC(=O)[C@@H](CCC(=O)O)NC(=O)[C@H](C)NC(=O)[C@H](CC(C)C)NC(=O)[C@H](N)Cc1ccccc1)C(=O)N[C@H]1CCCCNC1=O	> 50

The remaining lines, values ahead:

MIC [µg/mL]	Compound
> 50	CC[C@H](C)[C@@H](NC(=O)[C@H](CCC(=O)O)NC(=O)[C@H](Cc1cnc[nH]1)NC(=O)[C@H](CC(C)C)NC(=O)[C@H](N)Cc1ccccc1)C(=O)N[C@H]1CCCCNC1=O
> 50	CC[C@H](C)[C@H](NC(=O)[C@@H](CCC(=O)O)NC(=O)[C@H](Cc1cnc[nH]1)NC(=O)[C@H](CC(C)C)NC(=O)[C@H](N)Cc1ccccc1)C(=O)N[C@H]1CCCCNC1=O
> 50	CC[C@H](C)[C@@H](NC(=O)[C@@H](CCC(=O)O)NC(=O)[C@H](Cc1cnc[nH]1)NC(=O)[C@H](CC(C)C)NC(=O)[C@H](N)Cc1ccccc1)C(=O)N[C@H]1CCCNC1=O
> 50	CC[C@H](C)[C@@H](NC(=O)[C@@H](CCC(=O)O)NC(=O)[C@H](Cc1cnc[nH]1)NC(=O)[C@H](CC(C)C)NC(=O)[C@@H](N)Cc1ccccc1)C(=O)N[C@H]1CCCCNC1=O
> 50	CC[C@H](C)[C@@H](NC(=O)[C@@H](CCC(=O)O)NC(=O)[C@H](Cc1cnc[nH]1)NC(=O)[C@@H](CC(C)C)NC(=O)[C@H](N)Cc1ccccc1)C(=O)N[C@H]1CCCCNC1=O
> 50	CC[C@H](C)[C@@H](NC(=O)[C@@H](CCC(=O)O)NC(=O)[C@H](Cc1cnc[nH]1)NC(=O)[C@H](CC(C)C)NC(=O)[C@H](N)Cc1ccccc1)C(=O)N[C@@H](C)C(=O)O
> 50	CC(C)C[C@H](NC(=O)[C@H](N)Cc1ccccc1)C(=O)N[C@@H](Cc1cnc[nH]1)C(=O)N[C@H](CCC(=O)O)C(=O)N[C@H](C)C(=O)N[C@H]1CCCCNC1=O
> 50	CC[C@H](C)[C@@H](NC(=O)[C@@H](CCC(=O)O)NC(=O)[C@H](Cc1cnc[nH]1)NC(=O)[C@H](C)NC(=O)[C@H](N)Cc1ccccc1)C(=O)N[C@H]1CCCCNC1=O
> 50	CC[C@H](C)[C@@H](NC(=O)[C@@H](CCC(=O)O)NC(=O)[C@H](Cc1cnc[nH]1)NC(=O)[C@H](CC(C)C)NC(=O)[C@@H](C)N)C(=O)N[C@H]1CCCCNC1=O
0.78 (≈ 1.02 µM)	CC[C@H](C)[C@@H](NC(=O)[C@@H](CCC(=O)O)NC(=O)[C@H](Cc1cnc[nH]1)NC(=O)[C@H](CC(C)C)NC(=O)[C@H](N)Cc1ccccc1)C(=O)N[C@H]1CCCCNC1=O [CALPINACTAM]
